# Measurements reported in paper PMC9814781, “Structure-based design of a dual-warhead covalent inhibitor of FGFR4” (Communications Chemistry, 2022).
# pIC50: −log10 of the molar value.
# Assays:
# GSH reaction assay = format: in vitro ADME; settings: GSH 5 mM, inhibitor 1 mM, 37°C, 10–60 min
# Method: GSH (5 mM) and inhibitor (1 mM) or DMSO control were mixed in equal volumes and reacted at 37°C for 10 min, 20 min, 30 min, 40 min, 50 min, and 60 min. The remaining GSH was detected with DTNB (Beyotime, China), and the absorption light was measured at 412 nm on a plate reader (Perkin-Elmer). Data were determined using the time (min) versus % of control in Origin 2018 software.
# DYRK4 = molecular target: T1, DYRK4 (Homo sapiens, UniProt Q9NR20); experiment: Kinase selectivity profiling; format: biochemical; settings: DYRK4, 1000 nM
# T1 construct: purchased ICE Bioscience
# PIM1 = PIM1 (Homo sapiens, UniProt P11309); experiment: Kinase selectivity profiling
# IKK-beta = IKK-beta (Homo sapiens, UniProt O14920); experiment: Kinase selectivity profiling
# AurA = AurA (Homo sapiens, UniProt O14965); experiment: Kinase selectivity profiling
# EPHA5 = EPHA5 (Homo sapiens, UniProt P54756); experiment: Kinase selectivity profiling
# CK1γ1 = CK1γ1 (Homo sapiens, UniProt Q9HCP0); experiment: Kinase selectivity profiling
# EPHA1 = EPHA1 (Homo sapiens, UniProt P21709); experiment: Kinase selectivity profiling
# CDK7/CycH/MAT1 = CDK7/CycH/MAT1 (Homo sapiens, UniProt P50613); experiment: Kinase selectivity profiling
# DYRK1B = DYRK1B (Homo sapiens, UniProt Q9Y463); experiment: Kinase selectivity profiling
# DYRK2 = DYRK2 (Homo sapiens, UniProt Q92630); experiment: Kinase selectivity profiling
# PIK3CB/PIK3R1 = PIK3CB/PIK3R1 (Homo sapiens, UniProt P42338); experiment: Kinase selectivity profiling
# p38γ = p38γ (Homo sapiens, UniProt P53778); experiment: Kinase selectivity profiling
# FRK = FRK (Homo sapiens, UniProt P42685); experiment: Kinase selectivity profiling
# FGR = FGR (Homo sapiens, UniProt P09769); experiment: Kinase selectivity profiling
# FLT3 = FLT3 (Homo sapiens, UniProt P36888); experiment: Kinase selectivity profiling
# ROCK2 = ROCK2 (Homo sapiens, UniProt O75116); experiment: Kinase selectivity profiling
# CHK2 = CHK2 (Homo sapiens, UniProt O96017); experiment: Kinase selectivity profiling
# JNK1 = JNK1 (Homo sapiens, UniProt P45983); experiment: Kinase selectivity profiling
# BTK = BTK (Homo sapiens, UniProt Q06187); experiment: Kinase selectivity profiling
# CDK3/CycE1 = CDK3/CycE1 (Homo sapiens, UniProt Q00526); experiment: Kinase selectivity profiling
# YES = YES (Homo sapiens, UniProt P07947); experiment: Kinase selectivity profiling
# FES = FES (Homo sapiens, UniProt P07332); experiment: Kinase selectivity profiling
# HCK = HCK (Homo sapiens, UniProt P08631); experiment: Kinase selectivity profiling
# PIK3CA/PIK3R1 = PIK3CA/PIK3R1 (Homo sapiens, UniProt P42336); experiment: Kinase selectivity profiling
# FGFR2 = FGFR2 (Homo sapiens, UniProt P21802); experiment: Kinase inhibition assay (ADP-Glo); format: biochemical; parameters: FGFR2 (residues 453–770); 6xHis + PreScission site (N, cleaved yes); made in house; host or cells: Escherichia coli Rosseta
# Method: Wild-type FGFRs and mutant FGFRs were prepared as previously described[25]–[27]. In brief, the kinase domains of human FGFR1 (residues 456–765), FGFR2 (residues 453–770), FGFR3 (residues 450–758), and FGFR4 (residues 445–753) were cloned into a modified pET28a expression vector and then transfected into Escherichia coli Rosseta cells. The N-terminal of the recombinant proteins were contained a 6xHis tag followed by a PreScission cleavage site for FGFR1, FGFR2, FGFR3, and FGFR4. Site-directed mutagenesis of FGFR4 was generated according to the ClonExpress II One Step Cloning Kit (Vazyme) using the pET28a-FGFR4 plasmid as the template. These mutants were confirmed by DNA sequencing (Tsingke, Changsha, China). For crystallization experiments, the wild-type FGFR4 plasmid was co-expressed with untagged YOPH to obtain non-phosphorylated proteins. The proteins were first purified by Ni-NTA affinity chromatography. […]
# All kinase inhibition assays were performed with optimized kinase assay buffer consisting of 40 mM Tris-HCl pH 7.5, 20 mM MgCl2, 20 mM NaCl, 0.1 mg/mL BSA, 1 mM TCEP, and 4% DMSO. […] Fluorescence was measured on a multimode plate reader (Perkin-Elmer) using a chemiluminescence program after the addition of the detection reagent. IC50 values were determined using a three-parameter log [Inhibitor] versus response model in GraphPad Prism software.
# Sequence of EPHA1 (P21709 26-976): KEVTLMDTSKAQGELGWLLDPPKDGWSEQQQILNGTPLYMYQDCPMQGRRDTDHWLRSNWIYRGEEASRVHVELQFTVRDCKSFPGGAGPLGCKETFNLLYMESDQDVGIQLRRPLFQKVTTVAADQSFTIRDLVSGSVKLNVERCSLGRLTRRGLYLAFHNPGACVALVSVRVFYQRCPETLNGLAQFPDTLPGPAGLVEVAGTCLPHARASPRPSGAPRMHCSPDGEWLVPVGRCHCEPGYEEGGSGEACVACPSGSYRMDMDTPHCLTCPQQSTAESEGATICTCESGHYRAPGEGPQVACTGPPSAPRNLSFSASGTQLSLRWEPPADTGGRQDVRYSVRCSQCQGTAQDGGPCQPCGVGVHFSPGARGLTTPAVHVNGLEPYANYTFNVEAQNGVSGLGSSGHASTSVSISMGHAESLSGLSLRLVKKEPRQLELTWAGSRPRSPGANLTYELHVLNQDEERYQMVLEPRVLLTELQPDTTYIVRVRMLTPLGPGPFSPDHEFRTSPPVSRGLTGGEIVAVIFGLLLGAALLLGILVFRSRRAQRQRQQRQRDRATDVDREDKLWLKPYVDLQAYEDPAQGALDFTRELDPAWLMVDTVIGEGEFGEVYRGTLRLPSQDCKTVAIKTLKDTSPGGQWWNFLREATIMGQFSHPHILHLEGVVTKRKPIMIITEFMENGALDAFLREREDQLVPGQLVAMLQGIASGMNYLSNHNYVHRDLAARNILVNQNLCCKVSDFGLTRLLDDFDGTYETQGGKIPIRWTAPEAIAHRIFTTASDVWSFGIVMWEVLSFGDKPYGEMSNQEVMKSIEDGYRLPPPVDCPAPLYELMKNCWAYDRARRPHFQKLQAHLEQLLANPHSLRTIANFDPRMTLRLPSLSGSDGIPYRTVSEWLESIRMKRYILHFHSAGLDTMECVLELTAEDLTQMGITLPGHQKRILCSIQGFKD
# Sequence of BTK (Q06187 whole entry): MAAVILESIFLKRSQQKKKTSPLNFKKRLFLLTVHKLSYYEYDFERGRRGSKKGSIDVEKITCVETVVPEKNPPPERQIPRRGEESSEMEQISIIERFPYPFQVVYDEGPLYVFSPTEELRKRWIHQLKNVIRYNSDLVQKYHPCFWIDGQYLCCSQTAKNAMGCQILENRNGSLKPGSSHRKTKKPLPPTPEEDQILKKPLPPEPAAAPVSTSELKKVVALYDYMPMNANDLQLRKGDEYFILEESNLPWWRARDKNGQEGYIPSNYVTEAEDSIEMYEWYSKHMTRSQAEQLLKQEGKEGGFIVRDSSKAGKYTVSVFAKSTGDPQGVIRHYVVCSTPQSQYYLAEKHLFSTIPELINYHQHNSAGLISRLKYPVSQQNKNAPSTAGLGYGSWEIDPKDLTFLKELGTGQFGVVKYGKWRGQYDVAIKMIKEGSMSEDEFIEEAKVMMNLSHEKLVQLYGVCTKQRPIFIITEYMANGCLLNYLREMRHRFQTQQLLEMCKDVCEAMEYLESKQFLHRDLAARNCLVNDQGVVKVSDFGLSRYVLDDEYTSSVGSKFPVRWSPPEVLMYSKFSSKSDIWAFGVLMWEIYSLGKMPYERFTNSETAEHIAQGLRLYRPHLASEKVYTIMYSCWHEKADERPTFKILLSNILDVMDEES
# Sequence of PIK3CB/PIK3R1 (P42338 whole entry): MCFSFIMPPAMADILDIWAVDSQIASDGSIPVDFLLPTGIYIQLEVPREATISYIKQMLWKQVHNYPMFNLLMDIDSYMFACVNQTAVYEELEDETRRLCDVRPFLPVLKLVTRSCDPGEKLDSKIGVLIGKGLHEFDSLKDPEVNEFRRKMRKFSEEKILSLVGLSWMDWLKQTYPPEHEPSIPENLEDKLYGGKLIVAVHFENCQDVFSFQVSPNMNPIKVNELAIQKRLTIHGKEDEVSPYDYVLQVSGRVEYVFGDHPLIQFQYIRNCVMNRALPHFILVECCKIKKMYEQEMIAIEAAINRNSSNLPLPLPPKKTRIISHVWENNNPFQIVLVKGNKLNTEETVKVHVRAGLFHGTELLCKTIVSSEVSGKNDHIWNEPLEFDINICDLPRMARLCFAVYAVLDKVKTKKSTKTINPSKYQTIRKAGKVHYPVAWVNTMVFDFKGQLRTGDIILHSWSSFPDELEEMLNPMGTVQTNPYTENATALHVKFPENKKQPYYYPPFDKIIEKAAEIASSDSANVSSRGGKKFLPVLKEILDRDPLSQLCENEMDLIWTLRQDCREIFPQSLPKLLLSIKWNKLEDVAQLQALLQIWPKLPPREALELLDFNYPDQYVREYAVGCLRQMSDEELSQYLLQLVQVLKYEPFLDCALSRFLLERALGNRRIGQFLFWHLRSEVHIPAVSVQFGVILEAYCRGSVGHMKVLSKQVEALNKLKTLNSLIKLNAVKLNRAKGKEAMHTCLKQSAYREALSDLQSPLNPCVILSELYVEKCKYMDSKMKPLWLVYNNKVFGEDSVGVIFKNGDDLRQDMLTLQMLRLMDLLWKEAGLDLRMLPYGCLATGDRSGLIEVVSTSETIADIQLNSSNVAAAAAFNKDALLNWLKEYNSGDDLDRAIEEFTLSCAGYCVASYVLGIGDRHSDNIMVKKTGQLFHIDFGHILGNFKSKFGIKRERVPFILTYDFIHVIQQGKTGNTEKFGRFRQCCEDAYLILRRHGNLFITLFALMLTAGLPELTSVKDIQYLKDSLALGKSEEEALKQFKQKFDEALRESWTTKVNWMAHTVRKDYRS
# Sequence of PIK3CB/PIK3R1 (P27986 whole entry partner): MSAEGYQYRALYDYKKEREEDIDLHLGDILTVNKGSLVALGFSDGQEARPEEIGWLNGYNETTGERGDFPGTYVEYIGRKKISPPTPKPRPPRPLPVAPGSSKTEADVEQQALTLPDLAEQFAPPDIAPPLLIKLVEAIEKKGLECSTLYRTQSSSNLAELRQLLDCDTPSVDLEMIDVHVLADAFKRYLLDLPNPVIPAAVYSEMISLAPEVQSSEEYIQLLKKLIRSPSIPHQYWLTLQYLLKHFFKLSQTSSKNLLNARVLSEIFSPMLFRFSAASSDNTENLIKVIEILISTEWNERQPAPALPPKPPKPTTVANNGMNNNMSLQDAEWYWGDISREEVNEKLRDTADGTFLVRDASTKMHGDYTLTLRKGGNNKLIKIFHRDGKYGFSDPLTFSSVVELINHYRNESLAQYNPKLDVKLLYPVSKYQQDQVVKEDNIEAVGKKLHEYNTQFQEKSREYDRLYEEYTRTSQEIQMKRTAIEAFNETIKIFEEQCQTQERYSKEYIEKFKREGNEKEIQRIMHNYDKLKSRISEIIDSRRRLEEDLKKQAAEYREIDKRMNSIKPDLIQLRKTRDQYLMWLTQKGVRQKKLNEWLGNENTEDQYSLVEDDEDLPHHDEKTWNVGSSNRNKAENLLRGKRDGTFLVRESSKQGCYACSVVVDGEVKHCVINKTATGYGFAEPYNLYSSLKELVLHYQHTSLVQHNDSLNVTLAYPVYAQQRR
# Sequence of FRK (P42685 whole entry): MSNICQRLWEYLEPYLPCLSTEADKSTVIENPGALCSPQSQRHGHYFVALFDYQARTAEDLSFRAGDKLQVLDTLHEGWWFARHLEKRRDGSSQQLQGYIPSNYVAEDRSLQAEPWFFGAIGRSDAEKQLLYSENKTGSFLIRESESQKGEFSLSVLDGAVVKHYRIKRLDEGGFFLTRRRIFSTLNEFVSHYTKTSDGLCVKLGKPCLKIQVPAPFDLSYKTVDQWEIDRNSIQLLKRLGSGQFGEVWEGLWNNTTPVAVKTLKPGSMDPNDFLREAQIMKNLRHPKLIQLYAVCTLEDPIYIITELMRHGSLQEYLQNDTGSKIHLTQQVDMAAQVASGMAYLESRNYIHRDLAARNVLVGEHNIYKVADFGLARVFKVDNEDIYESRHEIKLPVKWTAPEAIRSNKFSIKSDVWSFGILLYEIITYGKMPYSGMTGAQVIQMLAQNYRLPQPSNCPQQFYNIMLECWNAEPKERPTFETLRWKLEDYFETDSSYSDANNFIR
# Sequence of AurA (O14965 whole entry): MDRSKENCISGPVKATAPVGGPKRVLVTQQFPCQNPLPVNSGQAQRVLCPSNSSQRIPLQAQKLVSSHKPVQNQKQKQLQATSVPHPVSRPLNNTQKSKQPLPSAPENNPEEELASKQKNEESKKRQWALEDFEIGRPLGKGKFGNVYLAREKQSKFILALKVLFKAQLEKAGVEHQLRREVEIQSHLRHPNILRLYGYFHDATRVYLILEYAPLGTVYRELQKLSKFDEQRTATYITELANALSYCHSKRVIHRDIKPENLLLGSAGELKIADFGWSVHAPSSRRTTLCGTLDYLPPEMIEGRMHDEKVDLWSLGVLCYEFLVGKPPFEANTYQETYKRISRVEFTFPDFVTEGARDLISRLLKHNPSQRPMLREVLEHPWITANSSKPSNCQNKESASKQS
# Sequence of IKK-beta (O14920 whole entry): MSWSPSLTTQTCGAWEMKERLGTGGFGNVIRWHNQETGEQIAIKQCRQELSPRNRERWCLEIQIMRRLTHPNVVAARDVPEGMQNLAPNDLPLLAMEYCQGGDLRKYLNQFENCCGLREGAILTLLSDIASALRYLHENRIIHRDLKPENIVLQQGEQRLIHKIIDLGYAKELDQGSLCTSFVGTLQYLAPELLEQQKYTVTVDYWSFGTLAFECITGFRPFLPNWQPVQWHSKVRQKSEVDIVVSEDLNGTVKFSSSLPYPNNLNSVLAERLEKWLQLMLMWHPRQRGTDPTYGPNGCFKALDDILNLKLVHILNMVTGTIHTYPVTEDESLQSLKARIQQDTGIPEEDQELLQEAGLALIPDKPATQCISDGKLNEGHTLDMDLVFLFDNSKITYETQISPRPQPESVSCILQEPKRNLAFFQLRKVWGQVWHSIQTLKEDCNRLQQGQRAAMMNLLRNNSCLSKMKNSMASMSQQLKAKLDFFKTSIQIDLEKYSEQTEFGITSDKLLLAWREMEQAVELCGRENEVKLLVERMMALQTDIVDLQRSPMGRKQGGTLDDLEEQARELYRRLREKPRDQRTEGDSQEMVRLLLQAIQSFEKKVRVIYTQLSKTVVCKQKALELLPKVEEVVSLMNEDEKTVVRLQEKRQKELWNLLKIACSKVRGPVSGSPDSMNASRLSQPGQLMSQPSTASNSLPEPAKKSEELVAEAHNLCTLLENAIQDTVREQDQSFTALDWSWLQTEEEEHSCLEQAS
structure (smiles),measurement,setting,value
C=CC(=O)Nc1ccccc1Nc1ncc2c(n1)N(CCCN1CCN(C(=O)C=C)CC1)C(=O)N(c1cc(OC)cc(OC)c1)C2 [CXF-009],"GSH reactivity (remaining GSH, DTNB)",GSH reaction assay,slightly more reactive to GSH than PRN1371
same,inhibition at 1 µM,DYRK4,1.84%
same,inhibition at 1 µM,PIM1,24.2%
same,inhibition at 1 µM,IKK-beta,19%
same,inhibition at 1 µM,AurA,15.4%
same,inhibition at 1 µM,EPHA5,8.67%
same,inhibition at 1 µM,CK1γ1,4.78%
same,inhibition at 1 µM,EPHA1,2.15%
same,inhibition at 1 µM,CDK7/CycH/MAT1,1.27%
same,inhibition at 1 µM,DYRK1B,0.62%
same,inhibition at 1 µM,DYRK2,0.38%
same,inhibition at 1 µM,PIK3CB/PIK3R1,0.17%
same,inhibition at 1 µM,p38γ,0.13%
same,inhibition at 1 µM,FRK,-0.22%
same,inhibition at 1 µM,FGR,-1.1%
same,inhibition at 1 µM,FLT3,-1.11%
same,inhibition at 1 µM,ROCK2,-2.53%
same,inhibition at 1 µM,CHK2,-3.02%
same,inhibition at 1 µM,JNK1,-4.4%
same,inhibition at 1 µM,BTK,-5.76%
same,inhibition at 1 µM,CDK3/CycE1,-7.17%
same,inhibition at 1 µM,YES,-7.61%
same,inhibition at 1 µM,FES,-7.81%
same,inhibition at 1 µM,HCK,-11.6%
same,inhibition at 1 µM,PIK3CA/PIK3R1,-35%
same,pIC50,FGFR2,5.62
